Like-named read-outs stand apart in the source and are kept apart here. One block for each compound: values may come before it.
Columns and labels:
[1] = Log P by HPLC on reversed phase columns (EEC directive 79/831 Annex V.A8); format: physicochemical; details: for chromatographic logP: reversed phase HPLC columns
Protocol: In the above table, measurement of Log P values was performed according to EEC directive 79/831 Annex V.A8 by HPLC (High Performance Liquid Chromatography) on reversed phase columns with the following methods: • [^a] Log P value is determined by measurement of LC-UV, in an acidic range, with 0.1% formic acid in water and acetonitrile as eluent (linear gradient from 10% acetonitrile to 95% acetonitrile). • [^b] Log P value is determined by measurement of LC-UV, in a neutral range, with 0.001 molar ammonium acetate solution in water and acetonitrile as eluent (linear gradient from 10% acetonitrile to 95% acetonitrile). • [^c] Log P value is determined by measurement of LC-UV, in an acidic range, with 0.1% phosphoric acid and acetonitrile as eluent (linear gradient from 10% acetonitrile to 95% acetonitrile).
If more than one Log P value is available within the same method, all the values are given and separated by “+”.
Calibration was done with straight-chain alkan2-ones (with 3 to 16 carbon atoms) with known Log P values (measurement of Log P values using retention times with linear interpolation between successive alkanones). Lambda-max-values were determined using UV-spectra from 200 nm to 400 nm and the peak values of the chromatographic signals.

[2] = test system: salicylate responsive promoter sequence of the PR1 (pathogenesis-related protein I) gene (AT2G14610); assay: Induction of defense gene expression in Arabidopsis thaliana (PR1 promoter-GFP reporter plants); format: in vivo; details: 72 h, 3rd day after spraying, mock treated leaves set as 1.00, read-out: relative fluorescence value; for fold induction at 75 ppm: 75 ppm of compound
Protocol: Arabidopsis thaliana reporter plants containing the coding sequence of a green fluorescent protein (GFP) linked to the salicylate responsive promoter sequence of the PR1 (pathogenesis-related protein I) gene (AT2G14610) were grown for five days and then sprayed with compounds. On the 3rd day after spraying, plant fluorescence was assessed with a MacroFluo instrument from Leica Microsystems (Wetzlar, Germany). Fluorescences were quantified with the Meta-Morph Microscopy Automation & Image Analysis Software (Molecular Devices, Sunnyvale, Calif., United States).
Background fluorescence in mock treated leaves was set as 1.00.

[3] = test system: Colletotrichum lindemuthianum; assay: Colletotrichum lindemuthianum in vitro cell test; format: cell-based; details: 144 h, 20 ppm of active ingredient, 6 days incubation, read-out: efficacy (direct activity, inhibition of fungal growth)
Protocol: Solvent: DMSO Culture medium: 14.6 g anhydrous D-glucose (VWR), 7.1 g Mycological Peptone (Oxoid), 1.4 g granulated Yeast Extract (Merck), QSP 1 liter Inoculum: spores suspension Fungicides were solubilized in DMSO and the solution used to prepare the required range of concentrations. The final concentration of DMSO used in the assay was ≤1%. A spore suspension of C. lindemuthianum was prepared and diluted to the desired spore density. Fungicides were evaluated for their ability to inhibit spores germination and mycelium growth in liquid culture assay. The compounds were added in the desired concentration to the culture medium with spores. After 6 days incubation, fungi-toxicity of compounds was determined by spectrometric measurement of mycelium growth. Inhibition of fungal growth was determined by comparing the absorbance values in wells containing the fungicides with the absorbance in control wells without fungicides.

Peronospora parasitica = assay: In vivo preventive test on Peronospora parasitica (crucifer downy mildew); details: Hyaloperonospora parasitica, 120 h; 125 ppm of active ingredient; cabbage; evaluated 5 days after inoculation; read-out: efficacy
Protocol: (§1) The tested active ingredients were prepared by homogenization in a mixture of acetone/Dimethyl sulfoxide/Tween®, and then diluted with water to obtain the desired active material concentration.
(§2) The young plants of cabbage were treated by spraying the active ingredient prepared as described above. Control plants were treated only with an aqueous solution of acetone/Dimethyl sulfoxide/Tween®.
After 72 hours, the plants were contaminated by spraying the leaves with an aqueous suspension of Peronospora parasitica spores. The contaminated cabbage plants were incubated for 5 days at 20° C. and at 100% relative humidity.
The test was evaluated 5 days after the inoculation. 0% means an efficacy which corresponds to that of the control plants while an efficacy of 100% means that no disease was observed.

[4] = test system: Xanthomonas campestris pv. campestris; assay: Xanthomonas campestris pv. campestris in vitro cell test; format: cell-based; details: 20 ppm of active ingredient, 24 h incubation, read-out: efficacy (direct activity, inhibition of bacteria growth)
Protocol: Solvent: DMSO Culture medium: LB broth medium (Luria Broth Miller) Sigma Inoculum: bacteria suspension Compounds were solubilized in DMSO and the solution used to prepare the required range of concentrations. The final concentration of DMSO used in the assay was ≤1%. Inoculum was prepared from a pre-culture of bacteria grown in liquid medium and diluted to the desired optical density (OD). Compounds were evaluated for their ability to inhibit bacteria growth in liquid culture assay. The compounds were added in the desired concentrations to culture medium containing the bacteria suspension. After 24 h of incubation, the efficacy of compounds was determined by spectrometric measurement of bacteria growth. Inhibition was determined by comparing the absorbance values in wells containing the compounds with the absorbance in control wells without active ingredients.

Uromyces appendiculatus = assay: In vivo preventive test on Uromyces appendiculatus (bean rust); details: Uromyces appendiculatus, 240 h, bean, evaluated 10 days after inoculation, read-out: efficacy; for pest or weed control at 31 ppm: 31 ppm of active ingredient; for pest or weed control at 125 ppm: 125 ppm of active ingredient; for pest or weed control at 500 ppm: 500 ppm of active ingredient
Protocol: as §1
The young plants of bean were treated by spraying the active ingredient prepared as described above.
Control plants were treated only with an aqueous solution of acetone/Dimethyl sulfoxide/Tween®.
After 72 hours, the plants were contaminated by spraying the leaves with an aqueous suspension of Uromyces appendiculatus spores. The contaminated bean plants were incubated for 24 hours at 20° C. and at 100% relative humidity and then for 9 days at 20° C. and at 70-80% relative humidity.
The test was evaluated 10 days after the inoculation. 0% means an efficacy which corresponds to that of the control plants while an efficacy of 100% means that no disease was observed.
Compound CMP1 was tested in an in vivo preventive test on Uromyces appendiculatus (bean rust) in the same conditions as described in Example G.

[5] = test system: Xanthomonas campestris pv. campestris; assay: In vivo preventive test on Xanthomonas campestris pv. campestris (black rot on cabbage); details: Xanthomonas campestris, cabbage, evaluated 8 or 10 days after inoculation, read-out: efficacy; for pest or weed control at 125 ppm: 125 ppm of active ingredient; for pest or weed control at 31 ppm: 31 ppm of active ingredient
Protocol: as §1, §2
After 72 hours, the plants were contaminated by spraying the leaves with an aqueous bacteria suspension of Xanthomonas campestris pv. campestris. The contaminated cabbage plants were incubated for 8 or 10 days at 27° C. at 95% relative humidity.
The test was evaluated 8 or 10 days after the inoculation. 0% means an efficacy which corresponds to that of the control plants while an efficacy of 100% means that no disease was observed.
Compound CMP1 was tested in an in vivo preventive test on Xanthomonas campestris pv. campestris (black rot on cabbage) in the same conditions as described in Example F.

[6] = method [a]: LC-UV, acidic range, 0.1% formic acid in water and acetonitrile as eluent
[7] = given in preparation examples, method not marked

Structure (SMILES): N#Cc1sc(C2=NC3(CC3)C(=O)O2)cc1Br [I.05]
- LogP [1, 6]: 2.83^[a]

Structure (SMILES): O=C(O)C1(NC(=S)c2sc(Br)c(Br)c2F)CC1 [1-{[(4,5-dibromo-3-fluoro-2-thienyl)carbonothioyl]amino}cyclopropanecarboxylic acid]
- chromatographic logP [1, 7]: 2.95

Structure (SMILES): Cc1c(C2=NC3(CC3)C(=O)S2)sc(Cl)c1Cl [I.15]
- LogP [1]: 5.53^[a]

Structure (SMILES): CC1(C)N=C(c2sc(Cl)c(Br)c2Br)OC1=O [I.18]
- LogP [1, 6]: 4.32^[a]

Structure (SMILES): Cc1c(C(=O)O)sc(C#N)c1Br [4-bromo-5-cyano-3-methylthiophene-2-carboxylic acid]
- chromatographic logP [1, 7]: 2.05

Structure (SMILES): Cc1c(C2=NC3(CCC3)C(=O)O2)sc(Cl)c1Cl [I.19]
- inhibition at 20 ppm [3]: ≤ 30%
- chromatographic logP [1, 6]: 4.75
- pest or weed control at 125 ppm (Peronospora parasitica): 90 to 100%
- inhibition at 20 ppm [4]: ≤ 30%
- pest or weed control at 31 ppm (Uromyces appendiculatus): 90 to 100%
- pest or weed control at 125 ppm (Uromyces appendiculatus): 90 to 100%

Structure (SMILES): O=C1SC(c2sc(Br)c(Br)c2F)=NC12CC2 [I.03, 5-(4,5-dibromo-3-fluoro-2-thienyl)-6-thia-4-azaspiro[2.4]hept-4-en-7-one]
- fold induction at 300 ppm [2]: > 2
- pest or weed control at 31 ppm [5]: 70 to 79%
- pest or weed control at 125 ppm [5]: 70 to 79%
- inhibition at 20 ppm [3]: ≤ 30%
- chromatographic logP [1, 7]: 5.08
- chromatographic logP [1, 6]: 5.08
- inhibition at 20 ppm [4]: ≤ 30%

Structure (SMILES): O=C1OC(c2sc(Br)c(Br)c2Cl)=NC12CCC2 [I.17]
- fold induction at 75 ppm [2]: > 2
- fold induction at 300 ppm [2]: > 2
- inhibition at 20 ppm [3]: ≤ 30%
- chromatographic logP [1, 6]: 4.51
- pest or weed control at 125 ppm (Peronospora parasitica): 90 to 100%
- inhibition at 20 ppm [4]: ≤ 30%
- pest or weed control at 125 ppm (Uromyces appendiculatus): 90 to 100%

Structure (SMILES): O=C1SC(c2sc(Br)c(Br)c2Br)=NC12CC2 [I.04]
- LogP [1, 6]: 5.61^[a]

Structure (SMILES): Cc1c(C2=NC(C)(C)C(=O)O2)sc(Cl)c1Cl [I.24]
- inhibition at 20 ppm [3]: ≤ 30%
- chromatographic logP [1, 6]: 4.51
- pest or weed control at 125 ppm (Peronospora parasitica): 80 to 89%
- inhibition at 20 ppm [4]: ≤ 30%
- pest or weed control at 125 ppm (Uromyces appendiculatus): 90 to 100%

Structure (SMILES): COC(=O)C1(NC(=S)c2sc(Br)c(Br)c2F)CC1 [methyl 1-{[(4,5-dibromo-3-fluoro-2-thienyl)carbonothioyl]amino}cyclopropanecarboxylate]
- chromatographic logP [1, 7]: 3.91

Structure (SMILES): O=C1SC(c2sc(Br)c(Br)c2I)=NC12CC2 [I.14]
- LogP [1, 6]: 5.61^[a]

Structure (SMILES): O=C(O)c1ccccc1O [Salicylic acid, reference compound]
- fold induction at 300 ppm [2]: 2.7

Continued, in another order:

- chromatographic logP [1, 6]: 3.77
Structure (SMILES): CC1(C)N=C(c2sc(Br)c(Br)c2F)OC1=O [I.16]
- fold induction at 75 ppm [2]: > 2
- fold induction at 300 ppm [2]: > 2
- inhibition at 20 ppm [3]: ≤ 30%
- pest or weed control at 125 ppm (Peronospora parasitica): 90 to 100%
- inhibition at 20 ppm [4]: ≤ 30%
- pest or weed control at 31 ppm (Uromyces appendiculatus): 90 to 100%
- pest or weed control at 125 ppm (Uromyces appendiculatus): 90 to 100%

- chromatographic logP [1, 6]: 5.65
Structure (SMILES): Cc1c(C2=NC3(CC3)C(=O)S2)sc(Br)c1Br [I.02]
- fold induction at 75 ppm [2]: > 2
- fold induction at 300 ppm [2]: > 2
- pest or weed control at 125 ppm [5]: 80 to 89%
- inhibition at 20 ppm [3]: ≤ 30%
- inhibition at 20 ppm [4]: ≤ 30%
- pest or weed control at 500 ppm (Uromyces appendiculatus): 70 to 79%

- Log P [1, 7]: 1.84
- chromatographic logP [1, 7]: 1.88
Structure (SMILES): Cc1c(C(=O)NC2(C(=O)O)CC2)sc(C#N)c1Br [1-{[(4-bromo-5-cyano-3-methyl-2-thienyl)carbonyl]amino}cyclopropanecarboxylic acid]

- LogP [1, 6]: 5.31^[a]
Structure (SMILES): Cc1c(C2=NC(C(C)C)C(=O)O2)sc(Br)c1Br (stereo not shown) [I.10]

- chromatographic logP [1, 6]: 4.26
Structure (SMILES): CC1(C)N=C(c2sc(Cl)c(Br)c2Cl)OC1=O [I.21]
- inhibition at 20 ppm [3]: ≤ 30%
- pest or weed control at 125 ppm (Peronospora parasitica): 90 to 100%
- inhibition at 20 ppm [4]: ≤ 30%
- pest or weed control at 31 ppm (Uromyces appendiculatus): 90 to 100%
- pest or weed control at 125 ppm (Uromyces appendiculatus): 90 to 100%

- chromatographic logP [1, 7]: 2.31
Structure (SMILES): COC(=O)C1(NC(=O)c2sc(C#N)c(Br)c2C)CC1 [methyl 1-{[(4-bromo-5-cyano-3-methyl-2-thienyl)carbonyl]amino}cyclopropanecarboxylate]

- LogP [1, 6]: 3.25^[a]
Structure (SMILES): Cc1c(C2=NC3(CC3)C(=O)O2)sc(C#N)c1Cl [I.07]

- chromatographic logP [1, 6]: 4.33
Structure (SMILES): CC1(C)N=C(c2sc(Cl)c(Cl)c2Br)OC1=O [I.23]
- inhibition at 20 ppm [3]: ≤ 30%
- inhibition at 20 ppm [4]: ≤ 30%
- pest or weed control at 31 ppm (Uromyces appendiculatus): 70 to 79%

- chromatographic logP [1, 6]: 5.61
Structure (SMILES): O=C1SC(c2sc(Cl)c(Cl)c2Cl)=NC12CC2 [I.01]
- fold induction at 300 ppm [2]: > 2
- pest or weed control at 31 ppm [5]: 80 to 89%
- pest or weed control at 125 ppm (Peronospora parasitica): 80 to 89%
- inhibition at 20 ppm [4]: ≤ 30%
- pest or weed control at 500 ppm (Uromyces appendiculatus): 90 to 100%

From US12492196B2, “Thienyloxazolones and analogues” (Bayer Aktiengesellschaft, priority 2019, dated 2025)
